Our source for the Ki values is ChEMBL document CHEMBL1131348, “Pyrazolo[1,5-a]pyrimidine CRF-1 receptor antagonists” (Bioorg Med Chem Lett, 1998).

The test deals with T1, Corticotropin-releasing factor receptor 1 (Homo sapiens, UniProt P34998).
T1 sequence (P34998 whole entry): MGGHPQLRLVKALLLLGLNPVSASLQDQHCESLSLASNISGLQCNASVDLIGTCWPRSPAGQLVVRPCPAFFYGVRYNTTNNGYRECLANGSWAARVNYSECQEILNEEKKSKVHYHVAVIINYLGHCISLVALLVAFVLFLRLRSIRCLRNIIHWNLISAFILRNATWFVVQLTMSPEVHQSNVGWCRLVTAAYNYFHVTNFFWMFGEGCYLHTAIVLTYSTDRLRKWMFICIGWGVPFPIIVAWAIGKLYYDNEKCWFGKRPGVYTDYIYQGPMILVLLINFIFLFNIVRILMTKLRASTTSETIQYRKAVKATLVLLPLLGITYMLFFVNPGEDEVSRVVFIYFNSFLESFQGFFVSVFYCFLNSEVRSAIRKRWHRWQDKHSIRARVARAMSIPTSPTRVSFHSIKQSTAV
As to the kind of experiment: Displacement of [125I]0-CRF from human Corticotropin releasing factor receptor 1 expressed in CHO cells. In kind it is cell-based. (Loss of bound radioactivity is the signal in a displacement assay; it reports binding, not function.)

As usually defined, the Ki is a dissociation constant, usually derived from enzyme kinetics or from competition with a known ligand. `CCCCN(CC)c1cc(C)nc2c(-c3ccc(Cl)cc3Cl)c(C)nn12` displayed a Ki of 5 nM. The same measure for `CCCCNc1cc(C)nc2c(-c3ccc(Cl)cc3Cl)c(C)nn12`: 69 nM. The same measure for `CCCCN(CC)c1cc(C)nc2c(-c3ccccc3Cl)c(C)nn12`: 15 nM.

`CCN(CCOC)c1cc(C)nc2c(-c3ccc(Cl)cc3Cl)c(C)nn12` returned a Ki of 11 nM.

In the case of `Cc1cc(N2CCCCC2)n2nc(C)c(-c3ccc(Cl)cc3Cl)c2n1`, the Ki stood at 41 nM. Compound `CCCCN(CC)c1cc(C)nc2c(-c3ccc(Cl)cc3Cl)cnn12` registered a Ki of 40 nM. As to `CCCC1CCCCN1c1cc(C)nc2c(-c3ccc(Cl)cc3Cl)c(C)nn12` (centres undefined), the Ki was 6.4 nM. Take `CCCCN(CC)c1cc(C)nc2c(-c3ccc(Cl)cc3)c(C)nn12`: the affinity, expressed as Ki, was 77 nM. On to `CCCN(CC1CC1)c1cc(C)nc2c(-c3ccc(Cl)cc3Cl)c(C)nn12`, for which the Ki is 3.2 nM. In turn, `CCCCN(CC)c1cc(C)nc2c(-c3ccccc3)c(C)nn12` registered a Ki of 511 nM. The compound `Cc1cc(N2CCOCC2)n2nc(C)c(-c3ccc(Cl)cc3Cl)c2n1` displayed a Ki of 310 nM.

`CCCCN(OC)c1cc(C)nc2c(-c3ccc(Cl)cc3Cl)c(C)nn12` showed a Ki of 216 nM. The Ki values of the last two compounds are within 1.5-fold of each other. On to `CCCCN(CC)c1cc(C)nc2c(-c3c(Cl)cc(Cl)cc3Cl)c(C)nn12`, for which the Ki was 93 nM. In turn, `CCCCN(CC)c1nc(C)nc2c1c(C)cn2-c1c(C)cc(C)cc1C` [CP-154526] had a Ki of 56 nM. Compared with the last compound, the Ki is about 1.7-fold lower.
